# Experimental data as given in US20100179151A1, “TRANSDERMAL APPLICATION OF TRIAZINES FOR CONTROLLING INFECTIONS WITH COCCIDIA” (BAYER ANIMAL HEALTH GMBH, priority 2006, published 2010).
# Where “and” joins values, the source holds several entries; their conditions need not be identical. Identical values can stand only once.
# Tests used:
# Type in all cases: in vivo
# [1] = Serum concentrations of toltrazuril and ponazuril after pour-on application in calves
# Description: (§1) A. Determination of the Serum Concentrations of Toltrazuril and Ponazuril after Pour-On Application in Calves and Rabbits On day 0, the formulation of Example 10 was applied externally at a dose of 20 mg per kg (body weight) to in each case three calves and rabbits. At the points in time specified in the tables, the serum concentrations of toltrazuril and its metabolite ponazuril (toltrazuril sulphone) were determined.
# [2] = Serum concentrations of toltrazuril and ponazuril after pour-on application in rabbits; conditions: for Ponazuril in mg/l on day after the treatment (serum, metabolite of toltrazuril) / Toltrazuril in mg/l on day after the treatment (serum): individual animals 1-3
# Description: as §1
# [3] = Percutaneous absorption in pigs: detection of active substance and main metabolite in serum and body tissues; conditions: pour-on, serum, musculature, skin, liver, kidney
# Source text: Astonishingly, this is even the case in animal species with little hair. Animals with little hair, such as pigs, ensure the protective function of the outer integument via a thicker epidermis. It is entirely surprising that the active substance is absorbed across this thicker skin and in particular also across the stratum corneum of the skin, which is particularly thick in pigs. Moreover, the active substance can also not be taken up via the large number of hair follicles, as is in the case in other animal species with a thicker coat of hair.
# Isospora suis = test: Activity of toltrazuril pour-on against artificially provoked infections in suckling pigs with Isospora suis; conditions: pour-on treatment
# Description: B. Activity of Toltrazuril Pour-On Against Artificially Provoked Infections in Suckling Pigs with Isospora suis: 3 groups with 4 to 11 animals were formed. Group A was infected with oocysts and treated with the toltrazuril pour-on formulation of Example 10. Group B was not infected, but treated in the same manner, the dosage rate of group A and B being in each case 20 mg/kg body weight. Group C was infected with oocysts, but not treated with toltrazuril. The success of the treatment was determined by monitoring the live weight of the animals. To this end, the animals were weighed on different days, and the weight gain of the individual animals was determined The results are shown in Table 3.
smiles,measurement,setting,value
"Cc1cc(-n2c(=O)[nH]c(=O)n(C)c2=O)ccc1Oc1ccc(S(=O)(=O)C(F)(F)F)cc1 [Ponazuril, ponazuril]","Ponazuril in mg/l on day after the treatment (serum, metabolite of toltrazuril)","[1]; day 0, toltrazuril formulation of Example 10 pour-on 20 mg/kg, individual animals 1-3, LoQ 25 μg/l",<LoQ
same,"Ponazuril in mg/l on day after the treatment (serum, metabolite of toltrazuril)","[1]; day 1, toltrazuril formulation of Example 10 pour-on 20 mg/kg, individual animals 1-3",156 mg/L and 44 mg/L and 146 mg/L
same,"Ponazuril in mg/l on day after the treatment (serum, metabolite of toltrazuril)","[1]; day 7, toltrazuril formulation of Example 10 pour-on 20 mg/kg, individual animals 1-3",9715 mg/L and 2735 mg/L and 2615 mg/L
same,"Ponazuril in mg/l on day after the treatment (serum, metabolite of toltrazuril)","[1]; day 13, toltrazuril formulation of Example 10 pour-on 20 mg/kg, individual animals 1-3",4506 mg/L and 3440 mg/L and 1905 mg/L
same,"Ponazuril in mg/l on day after the treatment (serum, metabolite of toltrazuril)","[1]; day 21, toltrazuril formulation of Example 10 pour-on 20 mg/kg, individual animals 1-3",1394 mg/L and 733 mg/L and 1172 mg/L
same,"Ponazuril in mg/l on day after the treatment (serum, metabolite of toltrazuril)","[2]; day 1, toltrazuril formulation of Example 10 pour-on 20 mg/kg",1.79 mg/l and 1.38 mg/l (2×)
same,"Ponazuril in mg/l on day after the treatment (serum, metabolite of toltrazuril)","[2]; day 2, toltrazuril formulation of Example 10 pour-on 20 mg/kg",4.72 mg/L and 2.63 mg/L and 2.83 mg/L
same,"Ponazuril in mg/l on day after the treatment (serum, metabolite of toltrazuril)","[2]; day 3, toltrazuril formulation of Example 10 pour-on 20 mg/kg",5.03 mg/L and 4.07 mg/L and 3.42 mg/L
"Cc1cc(-n2c(=O)[nH]c(=O)n(C)c2=O)ccc1Oc1ccc(SC(F)(F)F)cc1 [Toltrazuril, toltrazuril]",Percutaneous absorption: active substance and main metabolite detected in body tissues,[3],percutaneous absorption was also demonstrated
same,Percutaneous absorption and metabolism after pour-on application,[1],"percutaneously absorbed, and metabolised"
same,Toltrazuril in mg/l on day after the treatment (serum),"[1]; day 0, formulation of Example 10 applied externally (pour-on) 20 mg/kg, individual animals 1-3, LoQ 25 μg/l",<LoQ
same,Toltrazuril in mg/l on day after the treatment (serum),"[1]; day 1, formulation of Example 10 pour-on 20 mg/kg, individual animals 1-3",2180 mg/L and 650 mg/L and 2281 mg/L
same,Toltrazuril in mg/l on day after the treatment (serum),"[1]; day 7, formulation of Example 10 pour-on 20 mg/kg, individual animals 1-3",9246 mg/L and 2042 mg/L and 2275 mg/L
same,Toltrazuril in mg/l on day after the treatment (serum),"[1]; day 13, formulation of Example 10 pour-on 20 mg/kg, individual animals 1-3",2194 mg/L and 1806 mg/L and 702 mg/L
same,Toltrazuril in mg/l on day after the treatment (serum),"[1]; day 21, formulation of Example 10 pour-on 20 mg/kg, individual animals 1-3",462 mg/L and 371 mg/L and 430 mg/L
same,Control of massive infection with Isospora suis,Isospora suis,successfully controlled
same,Elimination of oocysts (parasitological efficacy),Isospora suis,reduced elimination of oocysts
same,Incidence of diarrhoea (clinical efficacy),Isospora suis,reduced incidence of diarrhoea
same,Weight development (clinical efficacy),Isospora suis,better weight development
same,Percutaneous absorption and metabolism after pour-on application,[2],"percutaneously absorbed, and metabolised"
same,Toltrazuril in mg/l on day after the treatment (serum),"[2]; day 1, formulation of Example 10 pour-on 20 mg/kg",9.06 mg/L and 8.67 mg/L and 9.67 mg/L
same,Toltrazuril in mg/l on day after the treatment (serum),"[2]; day 2, formulation of Example 10 pour-on 20 mg/kg",10.39 mg/L and 6.03 mg/L and 8.03 mg/L
same,Toltrazuril in mg/l on day after the treatment (serum),"[2]; day 3, formulation of Example 10 pour-on 20 mg/kg",6.66 mg/L and 5.07 mg/L and 6.70 mg/L
